What was measured:
Assay type in all cases: cell-based
OGR1 = biological target: T1, OGR1 (Homo sapiens, UniProt Q15743); assay: ERK activation in OGR1-infected Swiss 3T3 cells
T1 construct: expressed in transfected cells

GPR4 [1] = biological target: T2, GPR4 (Homo sapiens, UniProt P46093); assay: ERK MAP kinase activation (phospho-ERK Western blot) in GPR4-infected Swiss 3T3 cells; settings: PTX 100 ng/ml 12-16 h
T2 construct: were used to generate full length GPR4, which was digested with EcoRI and Xba I and cloned into the pBs3HA vector; expressed in transfected cells
Procedure: MAP kinases are key signaling intermediates of DNA synthesis and cell proliferation. Swiss 3T3 cells were infected with MSCV GPR4-ires-GFP or MSCV ires-GFP, and subsequently cells sorted by FACS for positive expression of GFP as described previously (Kabarowski et al. (2000) Proc Natl Acad Sci USA. 97, 12109-12114). Cells were plated in 6-well plates in DMEM containing 5% FBS, serum-starved overnight, and then treated lipids in DMEM for the indicated times. Cells were lysed on ice in RIPA buffer containing 50 mM Tris-HCl, pH 7.5, 1% Nonidet P-40, 0.5% deoxycholate,0.1% SDS, 150 mM NaCl, 2 mM EGTA, 25 mM sodium fluoride, 1 mM sodium orthovanadate, and 1× protease inhibitors (Sigma P8340). Lysates containing equal amounts of protein were separated on 10% SDS-polyacrylamide gels and transferred onto nitrocellulose membranes. Antibodies against phosphorylated ERK1/2 (Cell Signaling Technologies; Beverly, Mass.) were used to probe the membrane and the ECL system (Amersham) was used for detection. To normalize the amounts of protein loaded in each lane, membranes were stripped and re-probed with antibodies against total ERK (Cell Signaling Technologies). In some experiments, cells were pretreated with 100 ng/ml PTX for 12-16 h prior to SPC and LPC stimulation.

GPR4 [2] = biological target: T2, GPR4; assay: Single-cell intracellular calcium assay (fura-2) in GPR4-GFP-transfected MCF10A cells; settings: PTX 100 ng/ml, 16 h pretreatment
Procedure: Measurement of [Ca^2+]i, was performed as described previously in Xu et al. (2000) Nat Cell Biol 2, 261-267. Briefly, pGPR4-GFP-transfected MCF10A cells were grown in specialized glass-bottom dishes (Bioptech, Inc., Butler, Pa.) and loaded with fura-2 in HEPES buffered saline. Using a dual-wavelength spectrofluorometer (RFK-6002, Photon Technology Int'l, So. Brunswick, N.J.) coupled to an inverted fluorescence microscope (Olympus, IX-70, Lake Success, N.Y.), GFP-positive cells were identified using an excitation wavelength of 488 nm, a dichroic 505 nm long-pass filter and an emitter filter at bandpass of 535 nm (Chroma Technology, Brattleboro, Vt.). Measurements of [Ca^2+]i were performed on individual GPR4-GFP positive cells at excitation wavelengths of 340 and 380 nm and an emission wavelength of 510 nm. Conversion of the 340/380 ratio value into [Ca^2+]i in nM was estimated by comparing the cellular fluorescence ratio with ratios acquired using fura-2 (free acid) in buffers containing known Ca^2+ concentrations. [Ca^2+]i was then calculated as described by Grynkiewicz et al. (1985) J Biol Chem 260, 3440-3450. All calcium assays were performed in the presence of 1 mM EGTA in the assay buffers. Therefore, intracellular calcium release, not calcium influx, was analyzed.
To test whether GPR4 is a receptor for SPC, MCF10A cells were transiently transfected with pGPR4-GFP.
The GFP receptor fusion was used to identify positively transfected cells, and single-cell calcium assays were performed as described in our previous studies, such as Xu et al. (2000) Nat Cell Biol 2, 261-267.

GPR4 [3] = biological target: T2, GPR4; assay: DNA synthesis ([3H]thymidine incorporation) in GPR4-infected Swiss 3T3 cells; settings: PTX 100 ng/ml for 16 h; GFP- and GPR4-GFP expressing cells
Procedure: The effect of SPC and LPC on DNA synthesis was measured using [^3H] thymidine incorporation. Briefly, GPR4-ires-GFP- and GFP-Swiss 3T3 cells were plated in 96-well plates, serum-starved for 24 h, and treated with SPC, LPC, or other lipids in serum-free DMEM for 24 h. Cells were incubated with 0.75 μCi/ml [^3H]thymidine in serum-free DMEM for the last 18 h. Cells were harvested onto filter papers presoaked in 1% polyethylenimine using the automated cell harvester HARVEST 96. Incorporated [^3H]thymidine was counted in a 1450 Microbeta Trilux Liquid Scintillation and Luminescence Counter (Perkin-Elmer-Wallac, Inc.).

GPR4 [4] = biological target: T2, GPR4; assay: SRE luciferase reporter in GPR4-transfected HEK293 cells; settings: PTX 100 ng/ml 16 h; C3-exoenzyme co-transfected
Procedure: The serum-response element (SRE) reporter system is a sensitive assay for receptors of lipid factors (An et al. (1998) J Biol Chem 273, 7906-7910; An et al. (1999) Mol Pharmacol 55, 787-794). The SRE reporter system used herein (pSRE-Luc) was a gift from Dr. Songzhu An (UCSF), or may be purchased from Stratagene (La Jolla, Calif.). Both systems give identical results. HEK293 and HEK293GPR4 cells were cultured in RPMI1640 with 10% FBS in 10 cm dishes to ˜85% confluence. To the cells in each dish, pSRE-Luc (10 μg) was transfected in the presence of 60 μl LipofectAMINE reagent. Cells were seeded in 96-well plates 16 h after transfection, incubated for another 24 h in RPMI1640 with 10% FBS, and starved in serum-free medium for 16 h. SPC (dissolved in PBS to 10 mM) and other lipids (LPCs were dissolved in 70% ethanol. Other lipids were dissolved in PBS, 70-95% ethanol, or 100% MeOH) were diluted in serum free RPMI 1640 and added to the cells, followed by a 10 h incubation. Luciferase activity was measured in Microlite™ 1 plates (DYNEX Technologies, Inc., Virginia) using 60 μl of cell lysate and 20 μl luciferase substrate. PTX (100 ng/ml) was added during the 16 h serum starvation period and pcDNA1-C3 (encoding the C3-exoenzyme, 2 μg) was co-transfected with pSRE-Luc (10 μg). All experiments were performed in quadruplicate and were repeated at least three times. The Student's t test was performed using the GraphPad Instat software (San Diego, Calif.). p<0.05 was considered to be statistically significant.

T2 sequence (P46093 whole entry): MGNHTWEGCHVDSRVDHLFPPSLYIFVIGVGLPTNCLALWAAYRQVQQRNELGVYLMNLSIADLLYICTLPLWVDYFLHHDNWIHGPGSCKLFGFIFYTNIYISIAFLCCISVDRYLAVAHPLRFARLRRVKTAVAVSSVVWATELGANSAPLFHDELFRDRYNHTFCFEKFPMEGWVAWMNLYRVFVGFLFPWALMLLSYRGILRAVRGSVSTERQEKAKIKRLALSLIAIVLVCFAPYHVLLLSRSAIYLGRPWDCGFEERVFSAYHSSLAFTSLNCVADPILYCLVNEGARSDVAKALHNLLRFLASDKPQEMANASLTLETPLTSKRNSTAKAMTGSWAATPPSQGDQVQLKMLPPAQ
T1 sequence (Q15743 whole entry, species assumed): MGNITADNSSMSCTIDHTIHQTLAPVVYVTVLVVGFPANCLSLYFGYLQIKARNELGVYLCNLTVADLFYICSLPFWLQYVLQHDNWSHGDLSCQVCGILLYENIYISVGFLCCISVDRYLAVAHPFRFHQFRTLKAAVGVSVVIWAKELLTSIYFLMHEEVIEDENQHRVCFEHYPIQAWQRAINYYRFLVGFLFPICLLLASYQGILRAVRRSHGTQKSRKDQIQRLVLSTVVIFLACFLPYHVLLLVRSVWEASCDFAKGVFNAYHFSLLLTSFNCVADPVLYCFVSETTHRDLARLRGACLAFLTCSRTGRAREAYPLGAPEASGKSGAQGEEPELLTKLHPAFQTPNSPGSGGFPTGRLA

pertussis toxin [PTX] was tested. Which “PTX sensitivity of SPC-induced ERK activation” value (OGR1) did it give?
Its value is “PTX-insensitive”.

And the “PTX sensitivity of SPC-induced ERK activation” value (GPR4 [1])?
Its value is “sensitive to PTX”.

And the “effect of PTX on [Ca2+]i response to SPC and LPC” value (GPR4 [2])?
Its value is “completely abolished”.

And the “effect of PTX on DNA synthesis stimulated by SPC” value (GPR4 [3])?
Its value is “inhibited by PTX”.

What about the “inhibition of SRE-reporter activation by SPC and 16:0-LPC” value (GPR4 [4]) of the same substance?
Its value is “partially inhibited SRE-reporter activation”.
